Source: the supplement of paper PMC10307832

Assays:
Experiment in all cases: relative viability (nuclei count vs DMSO), 5 days (fraction); higher = more cells survive
XMD8-85 + Crizotinib = compound: CN1CCN(CC1)C2=CC(=C(C=C2)NC3=NC=C4C(=N3)N(C5=CC=CC=C5C(=O)N4C)C)OC [XMD8-85] + C[C@@H](Oc1cc(-c2cnn(C3CCNCC3)c2)cnc1N)c1c(Cl)ccc(F)c1Cl [Crizotinib] (partner 1 µM)
Outline: (§1)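 Relative viability equals treated-well nuclei counts divided by vehicle-well nuclei counts. Counts came from 4× images of lung cancer cell lines grown in 1536-well plates for 5 days after pin-tool dosing on the day after seeding. Dosing used one drug alone or a fixed anchor-drug dose plus five library-drug doses (not always all listed) in √10 steps, and values are medians of duplicate plates.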

XMD8-85 + Decitabine = compound: CN1CCN(CC1)C2=CC(=C(C=C2)NC3=NC=C4C(=N3)N(C5=CC=CC=C5C(=O)N4C)C)OC [XMD8-85] + Nc1ncn([C@H]2C[C@H](O)[C@@H](CO)O2)c(=O)n1 [Decitabine] (partner 2 µM)
Outline: as §1

4EGI-1 + Tozasertib = compound: O=C(O)C(Cc1ccccc1[N+](=O)[O-])=NNc1nc(-c2ccc(Cl)c(Cl)c2)cs1 (mixture of isomers) [4EGI-1] + Cc1cc(Nc2cc(N3CCN(C)CC3)nc(Sc3ccc(NC(=O)C4CC4)cc3)n2)n[nH]1 [Tozasertib] (partner 0.1 µM)
Outline: as §1

4EGI-1 + Vorinostat = compound: O=C(O)C(Cc1ccccc1[N+](=O)[O-])=NNc1nc(-c2ccc(Cl)c(Cl)c2)cs1 (mixture of isomers) [4EGI-1] + O=C(CCCCCCC(=O)Nc1ccccc1)NO [Vorinostat] (partner 1 µM)
Outline: as §1

Cell Line: EKVX
- relative viability (XMD8-85 + Crizotinib; first compound 0.08 µM): 0.892
- relative viability (XMD8-85 + Crizotinib; first compound 0.253 µM): 0.985
- relative viability (XMD8-85 + Crizotinib; first compound 0.8 µM): 1.12
- relative viability (XMD8-85 + Crizotinib; first compound 2.53 µM): 1
- relative viability (XMD8-85 + Crizotinib; first compound 8 µM): 0.886
- relative viability (XMD8-85 + Decitabine; first compound 0.08 µM): 0.536
- relative viability (XMD8-85 + Decitabine; first compound 0.253 µM): 0.32
- relative viability (XMD8-85 + Decitabine; first compound 0.8 µM): 0.33
- relative viability (XMD8-85 + Decitabine; first compound 2.53 µM): 0.61
- relative viability (XMD8-85 + Decitabine; first compound 8 µM): 0.328
- relative viability (4EGI-1 + Tozasertib; first compound 0.5 µM): 0.434
- relative viability (4EGI-1 + Tozasertib; first compound 1.581 µM): 0.359
- relative viability (4EGI-1 + Tozasertib; first compound 5 µM): 0.433
- relative viability (4EGI-1 + Tozasertib; first compound 15.81 µM): 0.368
- relative viability (4EGI-1 + Tozasertib; first compound 50 µM): 0.371
- relative viability (4EGI-1 + Vorinostat; first compound 0.5 µM): 0.852
- relative viability (4EGI-1 + Vorinostat; first compound 1.581 µM): 0.746
- relative viability (4EGI-1 + Vorinostat; first compound 5 µM): 0.759
- relative viability (4EGI-1 + Vorinostat; first compound 15.81 µM): 0.309
- relative viability (4EGI-1 + Vorinostat; first compound 50 µM): 0.203

Cell Line: COR-L23
- relative viability (XMD8-85 + Crizotinib; first compound 0.08 µM): 0.739
- relative viability (XMD8-85 + Crizotinib; first compound 0.253 µM): 0.561
- relative viability (XMD8-85 + Crizotinib; first compound 0.8 µM): 0.723
- relative viability (XMD8-85 + Crizotinib; first compound 2.53 µM): 0.631
- relative viability (XMD8-85 + Crizotinib; first compound 8 µM): 0.299
- relative viability (XMD8-85 + Decitabine; first compound 0.08 µM): 0.513
- relative viability (XMD8-85 + Decitabine; first compound 0.253 µM): 0.397
- relative viability (XMD8-85 + Decitabine; first compound 0.8 µM): 0.506
- relative viability (XMD8-85 + Decitabine; first compound 2.53 µM): 0.458
- relative viability (XMD8-85 + Decitabine; first compound 8 µM): 0.409
- relative viability (4EGI-1 + Tozasertib; first compound 0.5 µM): 0.215
- relative viability (4EGI-1 + Tozasertib; first compound 1.581 µM): 0.145
- relative viability (4EGI-1 + Tozasertib; first compound 5 µM): 0.189
- relative viability (4EGI-1 + Tozasertib; first compound 15.81 µM): 0.157
- relative viability (4EGI-1 + Tozasertib; first compound 50 µM): 0.0963
- relative viability (4EGI-1 + Vorinostat; first compound 0.5 µM): 0.672
- relative viability (4EGI-1 + Vorinostat; first compound 1.581 µM): 0.261
- relative viability (4EGI-1 + Vorinostat; first compound 5 µM): 0.618
- relative viability (4EGI-1 + Vorinostat; first compound 15.81 µM): 0.345
- relative viability (4EGI-1 + Vorinostat; first compound 50 µM): 0.103

Cell Line: SW 1573
- relative viability (XMD8-85 + Crizotinib; first compound 0.08 µM): 0.817
- relative viability (XMD8-85 + Crizotinib; first compound 0.253 µM): 0.705
- relative viability (XMD8-85 + Crizotinib; first compound 0.8 µM): 0.822
- relative viability (XMD8-85 + Crizotinib; first compound 2.53 µM): 0.867
- relative viability (XMD8-85 + Crizotinib; first compound 8 µM): 0.456
- relative viability (XMD8-85 + Decitabine; first compound 0.08 µM): 0.465
- relative viability (XMD8-85 + Decitabine; first compound 0.253 µM): 0.529
- relative viability (XMD8-85 + Decitabine; first compound 2.53 µM): 0.522
- relative viability (XMD8-85 + Decitabine; first compound 8 µM): 0.338
- relative viability (4EGI-1 + Tozasertib; first compound 0.5 µM): 0.176
- relative viability (4EGI-1 + Tozasertib; first compound 1.581 µM): 0.188
- relative viability (4EGI-1 + Tozasertib; first compound 5 µM): 0.149
- relative viability (4EGI-1 + Tozasertib; first compound 15.81 µM): 0.172
- relative viability (4EGI-1 + Tozasertib; first compound 50 µM): 0.102
- relative viability (4EGI-1 + Vorinostat; first compound 0.5 µM): 1.09
- relative viability (4EGI-1 + Vorinostat; first compound 1.581 µM): 0.787
- relative viability (4EGI-1 + Vorinostat; first compound 5 µM): 0.48
- relative viability (4EGI-1 + Vorinostat; first compound 15.81 µM): 0.455
- relative viability (4EGI-1 + Vorinostat; first compound 50 µM): 0.164

Cell Line: NCI-H1648
- relative viability (XMD8-85 + Decitabine; first compound 0.08 µM): 0.478
- relative viability (XMD8-85 + Decitabine; first compound 0.253 µM): 0.447
- relative viability (XMD8-85 + Decitabine; first compound 0.8 µM): 0.635
- relative viability (XMD8-85 + Decitabine; first compound 2.53 µM): 0.638
- relative viability (XMD8-85 + Decitabine; first compound 8 µM): 0.561
- relative viability (4EGI-1 + Tozasertib; first compound 0.5 µM): 0.604
- relative viability (4EGI-1 + Tozasertib; first compound 1.581 µM): 0.623
- relative viability (4EGI-1 + Tozasertib; first compound 5 µM): 0.532
- relative viability (4EGI-1 + Tozasertib; first compound 15.81 µM): 0.466
- relative viability (4EGI-1 + Tozasertib; first compound 50 µM): 0.314
- relative viability (4EGI-1 + Vorinostat; first compound 0.5 µM): 1.18
- relative viability (4EGI-1 + Vorinostat; first compound 1.581 µM): 0.388
- relative viability (4EGI-1 + Vorinostat; first compound 5 µM): 0.351
- relative viability (4EGI-1 + Vorinostat; first compound 15.81 µM): 0.414
- relative viability (4EGI-1 + Vorinostat; first compound 50 µM): 0.474

Cell Line: COR-L 105
- relative viability (XMD8-85 + Crizotinib; first compound 0.253 µM): 0.807
- relative viability (XMD8-85 + Crizotinib; first compound 0.8 µM): 0.793
- relative viability (XMD8-85 + Crizotinib; first compound 2.53 µM): 0.455
- relative viability (XMD8-85 + Crizotinib; first compound 8 µM): 0.255
- relative viability (XMD8-85 + Decitabine; first compound 0.253 µM): 0.731
- relative viability (XMD8-85 + Decitabine; first compound 0.8 µM): 0.7
- relative viability (XMD8-85 + Decitabine; first compound 2.53 µM): 0.537
- relative viability (XMD8-85 + Decitabine; first compound 8 µM): 0.466
- relative viability (4EGI-1 + Tozasertib; first compound 0.5 µM): 0.369
- relative viability (4EGI-1 + Tozasertib; first compound 1.581 µM): 0.343
- relative viability (4EGI-1 + Tozasertib; first compound 5 µM): 0.343
- relative viability (4EGI-1 + Tozasertib; first compound 15.81 µM): 0.286
- relative viability (4EGI-1 + Tozasertib; first compound 50 µM): 0.366
- relative viability (4EGI-1 + Vorinostat; first compound 0.5 µM): 0.823
- relative viability (4EGI-1 + Vorinostat; first compound 1.581 µM): 0.672
- relative viability (4EGI-1 + Vorinostat; first compound 5 µM): 0.777
- relative viability (4EGI-1 + Vorinostat; first compound 15.81 µM): 0.699
- relative viability (4EGI-1 + Vorinostat; first compound 50 µM): 0.592

Cell Line: NCI-H2023
- relative viability (XMD8-85 + Crizotinib; first compound 0.08 µM): 0.578
- relative viability (XMD8-85 + Crizotinib; first compound 0.253 µM): 0.627
- relative viability (XMD8-85 + Crizotinib; first compound 0.8 µM): 0.705
- relative viability (XMD8-85 + Crizotinib; first compound 2.53 µM): 0.544
- relative viability (XMD8-85 + Crizotinib; first compound 8 µM): 0.287
- relative viability (XMD8-85 + Decitabine; first compound 0.08 µM): 0.176
- relative viability (XMD8-85 + Decitabine; first compound 0.253 µM): 0.198
- relative viability (XMD8-85 + Decitabine; first compound 0.8 µM): 0.25
- relative viability (XMD8-85 + Decitabine; first compound 2.53 µM): 0.244
- relative viability (XMD8-85 + Decitabine; first compound 8 µM): 0.227
- relative viability (4EGI-1 + Tozasertib; first compound 0.5 µM): 0.377
- relative viability (4EGI-1 + Tozasertib; first compound 5 µM): 0.38
- relative viability (4EGI-1 + Tozasertib; first compound 15.81 µM): 0.259
- relative viability (4EGI-1 + Tozasertib; first compound 50 µM): 0.142
- relative viability (4EGI-1 + Vorinostat; first compound 0.5 µM): 0.91
- relative viability (4EGI-1 + Vorinostat; first compound 5 µM): 0.722
- relative viability (4EGI-1 + Vorinostat; first compound 15.81 µM): 0.138
- relative viability (4EGI-1 + Vorinostat; first compound 50 µM): 0.0836

Cell Line: NCI-H1355
- relative viability (XMD8-85 + Crizotinib; first compound 0.08 µM): 1.16
- relative viability (XMD8-85 + Crizotinib; first compound 0.253 µM): 1.07
- relative viability (XMD8-85 + Crizotinib; first compound 0.8 µM): 1.06
- relative viability (XMD8-85 + Crizotinib; first compound 2.53 µM): 0.989
- relative viability (XMD8-85 + Crizotinib; first compound 8 µM): 0.77
- relative viability (XMD8-85 + Decitabine; first compound 0.08 µM): 0.359
- relative viability (XMD8-85 + Decitabine; first compound 0.253 µM): 0.308
- relative viability (XMD8-85 + Decitabine; first compound 0.8 µM): 0.345
- relative viability (XMD8-85 + Decitabine; first compound 2.53 µM): 0.355
- relative viability (XMD8-85 + Decitabine; first compound 8 µM): 0.329
- relative viability (4EGI-1 + Tozasertib; first compound 0.5 µM): 0.551
- relative viability (4EGI-1 + Tozasertib; first compound 1.581 µM): 0.551
- relative viability (4EGI-1 + Tozasertib; first compound 5 µM): 0.559
- relative viability (4EGI-1 + Tozasertib; first compound 15.81 µM): 0.429
- relative viability (4EGI-1 + Tozasertib; first compound 50 µM): 0.291
- relative viability (4EGI-1 + Vorinostat; first compound 0.5 µM): 0.698
- relative viability (4EGI-1 + Vorinostat; first compound 1.581 µM): 0.586
- relative viability (4EGI-1 + Vorinostat; first compound 5 µM): 0.662
- relative viability (4EGI-1 + Vorinostat; first compound 15.81 µM): 0.595
- relative viability (4EGI-1 + Vorinostat; first compound 50 µM): 0.514

Cell Line: NCI-H1975
- relative viability (XMD8-85 + Crizotinib; first compound 0.08 µM): 1.08
- relative viability (XMD8-85 + Crizotinib; first compound 0.253 µM): 0.827
- relative viability (XMD8-85 + Crizotinib; first compound 0.8 µM): 1.07
- relative viability (XMD8-85 + Crizotinib; first compound 2.53 µM): 0.937
- relative viability (XMD8-85 + Crizotinib; first compound 8 µM): 0.352
- relative viability (XMD8-85 + Decitabine; first compound 0.08 µM): 0.392
- relative viability (XMD8-85 + Decitabine; first compound 0.253 µM): 0.359
- relative viability (XMD8-85 + Decitabine; first compound 0.8 µM): 0.382
- relative viability (XMD8-85 + Decitabine; first compound 2.53 µM): 0.328
- relative viability (XMD8-85 + Decitabine; first compound 8 µM): 0.35
- relative viability (4EGI-1 + Tozasertib; first compound 0.5 µM): 0.773
- relative viability (4EGI-1 + Tozasertib; first compound 1.581 µM): 0.653
- relative viability (4EGI-1 + Tozasertib; first compound 5 µM): 0.785
- relative viability (4EGI-1 + Tozasertib; first compound 15.81 µM): 0.523
- relative viability (4EGI-1 + Tozasertib; first compound 50 µM): 0.179
- relative viability (4EGI-1 + Vorinostat; first compound 0.5 µM): 0.79
- relative viability (4EGI-1 + Vorinostat; first compound 1.581 µM): 0.679
- relative viability (4EGI-1 + Vorinostat; first compound 5 µM): 0.754
- relative viability (4EGI-1 + Vorinostat; first compound 15.81 µM): 0.7
- relative viability (4EGI-1 + Vorinostat; first compound 50 µM): 0.357

Cell Line: NCI-H1299
- relative viability (XMD8-85 + Crizotinib; first compound 0.08 µM): 0.983
- relative viability (XMD8-85 + Crizotinib; first compound 0.253 µM): 0.962
- relative viability (XMD8-85 + Crizotinib; first compound 0.8 µM): 1.03
- relative viability (XMD8-85 + Crizotinib; first compound 2.53 µM): 0.928
- relative viability (XMD8-85 + Crizotinib; first compound 8 µM): 0.601
